Laboratory results taken from ChEMBL document CHEMBL5696442, “Discovery of type II inhibitors of TGFβ-activated kinase 1 (TAK1) and mitogen-activated protein kinase kinase kinase kinase 2 (MAP4K2)” (J Med Chem, 2015).

Key:
[1] = biological target: TRAF2 and NCK-interacting protein kinase (Homo sapiens) (UniProt Q9UKE5); test: Inhibition of ZC2 Lys2 labeling site in human Huh-7 cell lysate at 1 uM by KiNativ Profiling analysis relative to control; type: subcellular
[2] = biological target: T1, Serine/threonine-protein kinase Nek9 (Homo sapiens) (UniProt Q8TD19); test: Inhibition of NEK9 Lys1 labeling site harbouring TEDDSLVVWKEVDLTR in human A-375 cells at 5 uM by KiNativ Profiling analysis relative to control; type: cell-based
T1 sequence (whole entry): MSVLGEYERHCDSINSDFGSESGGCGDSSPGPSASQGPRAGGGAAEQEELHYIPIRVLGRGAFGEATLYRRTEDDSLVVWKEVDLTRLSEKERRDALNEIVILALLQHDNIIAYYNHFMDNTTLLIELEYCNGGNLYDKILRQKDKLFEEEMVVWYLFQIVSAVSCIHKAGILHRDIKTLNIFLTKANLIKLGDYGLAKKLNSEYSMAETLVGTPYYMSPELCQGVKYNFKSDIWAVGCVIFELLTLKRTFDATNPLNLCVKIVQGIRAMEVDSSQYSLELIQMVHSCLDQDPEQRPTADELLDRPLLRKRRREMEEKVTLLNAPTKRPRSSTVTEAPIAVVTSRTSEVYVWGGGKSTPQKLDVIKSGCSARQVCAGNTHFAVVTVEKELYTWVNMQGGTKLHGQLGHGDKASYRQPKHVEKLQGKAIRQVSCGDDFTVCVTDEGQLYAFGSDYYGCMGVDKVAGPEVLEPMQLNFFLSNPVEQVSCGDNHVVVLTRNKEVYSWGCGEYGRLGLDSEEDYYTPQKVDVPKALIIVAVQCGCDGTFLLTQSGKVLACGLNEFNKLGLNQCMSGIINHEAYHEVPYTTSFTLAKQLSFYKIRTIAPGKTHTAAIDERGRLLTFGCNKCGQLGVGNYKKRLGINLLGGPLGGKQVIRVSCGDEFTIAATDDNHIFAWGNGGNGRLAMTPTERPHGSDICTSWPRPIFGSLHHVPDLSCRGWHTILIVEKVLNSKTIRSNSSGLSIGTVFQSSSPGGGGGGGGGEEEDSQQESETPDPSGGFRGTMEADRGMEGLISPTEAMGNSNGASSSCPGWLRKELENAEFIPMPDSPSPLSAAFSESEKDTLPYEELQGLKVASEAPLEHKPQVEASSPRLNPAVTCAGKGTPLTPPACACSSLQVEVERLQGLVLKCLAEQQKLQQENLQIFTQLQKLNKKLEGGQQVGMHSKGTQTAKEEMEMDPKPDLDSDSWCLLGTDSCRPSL

[3] = biological target: T2, Serine/threonine-protein kinase TAO2 (Homo sapiens) (UniProt Q9UL54); test: Inhibition of TAO2 Lys2 labeling site in human A-375 cells at 5 uM by KiNativ Profiling analysis relative to control; type: cell-based
T2 sequence (whole entry): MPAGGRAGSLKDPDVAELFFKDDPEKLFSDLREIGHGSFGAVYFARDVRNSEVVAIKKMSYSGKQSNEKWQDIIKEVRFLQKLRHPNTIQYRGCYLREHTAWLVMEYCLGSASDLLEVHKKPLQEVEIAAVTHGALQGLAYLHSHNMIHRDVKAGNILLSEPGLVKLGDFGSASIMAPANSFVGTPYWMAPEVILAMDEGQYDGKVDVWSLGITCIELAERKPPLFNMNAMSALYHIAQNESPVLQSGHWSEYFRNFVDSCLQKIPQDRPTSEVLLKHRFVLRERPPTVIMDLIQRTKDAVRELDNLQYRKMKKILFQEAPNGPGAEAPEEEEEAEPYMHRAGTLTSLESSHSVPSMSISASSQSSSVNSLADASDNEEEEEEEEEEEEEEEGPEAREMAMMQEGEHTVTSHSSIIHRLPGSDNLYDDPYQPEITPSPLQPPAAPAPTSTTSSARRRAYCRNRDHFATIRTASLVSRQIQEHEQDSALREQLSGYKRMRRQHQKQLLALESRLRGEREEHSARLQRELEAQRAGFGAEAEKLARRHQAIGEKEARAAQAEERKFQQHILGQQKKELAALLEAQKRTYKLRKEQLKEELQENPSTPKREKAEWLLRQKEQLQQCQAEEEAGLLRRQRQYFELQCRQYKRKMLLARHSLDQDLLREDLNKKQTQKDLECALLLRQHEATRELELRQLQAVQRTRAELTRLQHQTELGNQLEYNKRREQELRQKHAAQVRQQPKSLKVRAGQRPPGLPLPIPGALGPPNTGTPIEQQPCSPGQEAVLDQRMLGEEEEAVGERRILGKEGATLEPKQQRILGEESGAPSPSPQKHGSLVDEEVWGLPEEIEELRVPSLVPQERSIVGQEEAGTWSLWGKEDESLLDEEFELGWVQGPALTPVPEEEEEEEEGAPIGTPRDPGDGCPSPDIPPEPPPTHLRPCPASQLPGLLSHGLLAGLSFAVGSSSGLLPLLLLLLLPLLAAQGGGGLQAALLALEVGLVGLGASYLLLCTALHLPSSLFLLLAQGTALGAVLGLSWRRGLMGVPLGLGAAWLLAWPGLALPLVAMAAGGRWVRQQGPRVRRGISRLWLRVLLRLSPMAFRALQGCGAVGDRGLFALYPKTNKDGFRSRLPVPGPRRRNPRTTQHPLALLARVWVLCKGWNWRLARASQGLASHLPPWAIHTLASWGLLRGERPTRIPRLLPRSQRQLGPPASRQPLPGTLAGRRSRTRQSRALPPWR

[4] = biological target: T3, Dual specificity mitogen-activated protein kinase kinase 5 (Homo sapiens) (UniProt Q13163); test: Inhibition of MAP2K5 Lys2 labeling site in human A-375 cells at 0.05 uM by KiNativ Profiling analysis relative to control; type: cell-based
T3 sequence (whole entry): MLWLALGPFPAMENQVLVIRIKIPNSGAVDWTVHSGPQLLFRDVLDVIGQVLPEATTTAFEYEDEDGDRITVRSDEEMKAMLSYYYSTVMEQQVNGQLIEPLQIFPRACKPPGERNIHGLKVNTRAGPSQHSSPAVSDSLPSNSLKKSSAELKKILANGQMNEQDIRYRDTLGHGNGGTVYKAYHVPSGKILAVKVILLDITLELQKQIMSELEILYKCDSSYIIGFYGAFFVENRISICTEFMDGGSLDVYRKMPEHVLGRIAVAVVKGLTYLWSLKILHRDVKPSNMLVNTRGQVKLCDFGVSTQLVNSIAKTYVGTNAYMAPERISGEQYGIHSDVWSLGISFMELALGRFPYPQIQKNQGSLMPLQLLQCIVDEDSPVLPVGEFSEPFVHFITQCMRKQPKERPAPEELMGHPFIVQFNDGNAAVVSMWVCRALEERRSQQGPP

[5] = biological target: Serine/threonine-protein kinase 26 (Homo sapiens) (UniProt Q9P289); test: Inhibition of MST4 Lys2 labeling site in human A-375 cells at 0.05 uM by KiNativ Profiling analysis relative to control; type: cell-based
[6] = biological target: Cyclin-dependent kinase 18 (Homo sapiens) (UniProt Q07002); test: Inhibition of PCTAIRE3 Lys1 labeling site harbouringSKLTENLVALKEIR in human A-375 cells at 0.05 uM by KiNativ Profiling analysis relative to control; type: cell-based
Sequence of Cyclin-dependent kinase 18 (Homo sapiens) (Q07002 whole entry): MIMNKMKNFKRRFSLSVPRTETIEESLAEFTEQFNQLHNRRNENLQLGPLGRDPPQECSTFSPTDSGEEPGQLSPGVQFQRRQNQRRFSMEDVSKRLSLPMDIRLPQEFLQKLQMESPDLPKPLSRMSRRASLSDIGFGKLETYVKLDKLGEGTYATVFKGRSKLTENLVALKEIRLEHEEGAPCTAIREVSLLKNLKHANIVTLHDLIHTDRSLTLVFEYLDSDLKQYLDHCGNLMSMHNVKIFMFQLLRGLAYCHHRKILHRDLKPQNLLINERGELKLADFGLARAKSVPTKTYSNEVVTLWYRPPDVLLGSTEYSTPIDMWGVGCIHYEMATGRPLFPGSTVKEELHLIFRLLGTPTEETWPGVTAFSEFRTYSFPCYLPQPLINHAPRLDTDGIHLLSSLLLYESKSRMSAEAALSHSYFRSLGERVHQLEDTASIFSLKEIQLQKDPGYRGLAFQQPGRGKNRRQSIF

Sequence of TRAF2 and NCK-interacting protein kinase (Homo sapiens) (Q9UKE5 whole entry, looked up): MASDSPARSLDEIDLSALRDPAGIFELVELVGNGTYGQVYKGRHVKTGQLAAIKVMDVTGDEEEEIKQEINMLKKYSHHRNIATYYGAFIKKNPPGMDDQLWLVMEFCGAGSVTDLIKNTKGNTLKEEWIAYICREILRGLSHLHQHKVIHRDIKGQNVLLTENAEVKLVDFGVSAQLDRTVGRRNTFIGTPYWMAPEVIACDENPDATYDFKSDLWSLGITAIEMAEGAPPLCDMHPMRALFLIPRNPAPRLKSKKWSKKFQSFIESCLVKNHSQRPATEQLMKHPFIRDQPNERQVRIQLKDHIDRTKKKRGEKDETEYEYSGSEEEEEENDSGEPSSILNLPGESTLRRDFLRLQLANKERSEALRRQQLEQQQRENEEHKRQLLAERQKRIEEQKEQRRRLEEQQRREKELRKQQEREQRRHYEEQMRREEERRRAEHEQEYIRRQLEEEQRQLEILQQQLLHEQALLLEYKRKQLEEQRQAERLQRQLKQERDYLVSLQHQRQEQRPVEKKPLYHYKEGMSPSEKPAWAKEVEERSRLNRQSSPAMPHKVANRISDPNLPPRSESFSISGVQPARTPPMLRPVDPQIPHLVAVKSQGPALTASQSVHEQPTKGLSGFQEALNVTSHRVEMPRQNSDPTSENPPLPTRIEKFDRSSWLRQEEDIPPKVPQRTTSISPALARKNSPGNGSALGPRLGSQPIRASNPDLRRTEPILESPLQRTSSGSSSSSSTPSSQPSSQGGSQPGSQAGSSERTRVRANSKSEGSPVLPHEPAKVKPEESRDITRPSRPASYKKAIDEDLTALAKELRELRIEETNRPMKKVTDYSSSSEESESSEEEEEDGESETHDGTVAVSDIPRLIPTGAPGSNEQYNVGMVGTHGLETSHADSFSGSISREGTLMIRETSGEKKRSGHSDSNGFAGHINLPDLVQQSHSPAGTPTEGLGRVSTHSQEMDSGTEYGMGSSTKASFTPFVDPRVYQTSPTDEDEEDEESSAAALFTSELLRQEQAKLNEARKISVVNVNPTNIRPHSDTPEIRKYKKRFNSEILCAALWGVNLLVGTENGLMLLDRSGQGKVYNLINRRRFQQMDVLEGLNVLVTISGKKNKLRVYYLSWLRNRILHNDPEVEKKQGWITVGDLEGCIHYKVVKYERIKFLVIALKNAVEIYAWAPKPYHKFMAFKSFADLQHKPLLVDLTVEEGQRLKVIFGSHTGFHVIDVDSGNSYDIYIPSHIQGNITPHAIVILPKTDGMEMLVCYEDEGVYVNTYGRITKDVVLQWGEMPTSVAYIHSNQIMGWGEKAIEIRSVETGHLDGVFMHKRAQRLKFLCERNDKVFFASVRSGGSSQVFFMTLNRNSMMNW
Sequence of Serine/threonine-protein kinase 26 (Homo sapiens) (Q9P289 2-416 limits assumed): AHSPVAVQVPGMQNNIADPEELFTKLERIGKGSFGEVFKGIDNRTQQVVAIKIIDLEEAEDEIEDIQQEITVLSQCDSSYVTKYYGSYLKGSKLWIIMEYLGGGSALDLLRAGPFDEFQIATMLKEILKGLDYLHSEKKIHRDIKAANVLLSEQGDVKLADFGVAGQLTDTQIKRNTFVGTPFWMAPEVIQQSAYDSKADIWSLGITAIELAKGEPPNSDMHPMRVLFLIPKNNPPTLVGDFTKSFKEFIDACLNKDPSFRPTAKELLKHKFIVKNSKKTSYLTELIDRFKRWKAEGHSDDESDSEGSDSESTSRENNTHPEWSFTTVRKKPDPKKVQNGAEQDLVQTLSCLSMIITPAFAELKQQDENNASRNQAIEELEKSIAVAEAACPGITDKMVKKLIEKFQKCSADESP

SMILES	inhibition [1] [%]	inhibition [2] [%]	inhibition [3] [%]	inhibition [4] [%]	inhibition [5] [%]	inhibition [6] [%]
CNc1cc(Oc2cc(C(=O)Nc3cc(N4CCN(C)CC4)cc(C(F)(F)F)c3)ccc2C)ncn1	2.7					
CCN1CCN(Cc2ccc(NC(=O)c3ccc(C)c(/C=C/c4cnc5[nH]ccc5c4OC)c3)cc2C(F)(F)F)CC1		0.1	82.2	-5.6	9.1	8.5
CNc1cc(Oc2cc(C(=O)Nc3cc(-n4cnc(C)c4)cc(C(F)(F)F)c3)ccc2C)ncn1	24.1					
CCN1CCN(Cc2ccc(NC(=O)c3ccc(C)c(Oc4ccnc5[nH]ccc45)c3)cc2C(F)(F)F)CC1		-1.2	82.5	19.1	-0.7	2.5
